Assay results published in publication PMC5399312 (Journal of Experimental & Clinical Cancer Research : CR, 2017).

How the values were obtained:
HK1 = molecular target: T1, HK1 (Homo sapiens, UniProt P19367); assay: In vitro enzyme inhibition assay (G6P-DH coupled, NADH 340 nm); assay type: biochemical; conditions: recombinant HK1
T1 construct: purchased Shanghai yuanye Bio-Technology Co., Ltd (China)
T1 sequence (P19367 1-917): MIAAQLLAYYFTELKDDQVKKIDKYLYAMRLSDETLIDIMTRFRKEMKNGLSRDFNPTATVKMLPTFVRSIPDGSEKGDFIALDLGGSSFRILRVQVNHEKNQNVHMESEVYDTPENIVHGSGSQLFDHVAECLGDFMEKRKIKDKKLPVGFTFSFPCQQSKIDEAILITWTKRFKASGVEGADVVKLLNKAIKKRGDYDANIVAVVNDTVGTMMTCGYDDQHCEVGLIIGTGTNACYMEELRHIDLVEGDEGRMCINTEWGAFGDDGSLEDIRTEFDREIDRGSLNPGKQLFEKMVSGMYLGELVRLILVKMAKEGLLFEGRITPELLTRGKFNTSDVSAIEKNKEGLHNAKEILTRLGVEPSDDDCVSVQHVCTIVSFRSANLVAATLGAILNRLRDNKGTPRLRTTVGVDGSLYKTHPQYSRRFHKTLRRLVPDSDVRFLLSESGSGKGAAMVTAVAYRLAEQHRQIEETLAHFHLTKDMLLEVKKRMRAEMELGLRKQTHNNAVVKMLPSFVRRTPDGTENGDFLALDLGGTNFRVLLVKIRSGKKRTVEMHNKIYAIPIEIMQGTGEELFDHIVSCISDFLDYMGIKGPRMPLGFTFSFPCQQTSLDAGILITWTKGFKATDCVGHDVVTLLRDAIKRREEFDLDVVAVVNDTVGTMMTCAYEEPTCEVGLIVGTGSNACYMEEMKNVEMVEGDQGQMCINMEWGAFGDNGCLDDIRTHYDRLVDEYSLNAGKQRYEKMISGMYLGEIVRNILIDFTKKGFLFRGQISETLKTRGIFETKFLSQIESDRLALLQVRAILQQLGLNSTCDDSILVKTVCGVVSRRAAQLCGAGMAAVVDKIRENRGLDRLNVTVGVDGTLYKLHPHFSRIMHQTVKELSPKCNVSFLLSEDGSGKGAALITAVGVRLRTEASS
Procedure: (§1) Then 85 μL assay mix containing 100 mM Tris HCl pH 8.0, 5 mM MgCl2, 200 mM Glucose, 0.8 mM ATP, 1 mM NAD^+, 0.25 Units of G6P-DH, was added.

HK2 = molecular target: T2, HK2 (Homo sapiens, UniProt P52789); assay: as above; assay type: biochemical; conditions: recombinant HK2; n.i means no enzyme inhibition; read-out: Enzyme IC50
T2 construct: made in house; host or cells: E. coli BL21 (DE3)
T2 sequence (P52789 1-917): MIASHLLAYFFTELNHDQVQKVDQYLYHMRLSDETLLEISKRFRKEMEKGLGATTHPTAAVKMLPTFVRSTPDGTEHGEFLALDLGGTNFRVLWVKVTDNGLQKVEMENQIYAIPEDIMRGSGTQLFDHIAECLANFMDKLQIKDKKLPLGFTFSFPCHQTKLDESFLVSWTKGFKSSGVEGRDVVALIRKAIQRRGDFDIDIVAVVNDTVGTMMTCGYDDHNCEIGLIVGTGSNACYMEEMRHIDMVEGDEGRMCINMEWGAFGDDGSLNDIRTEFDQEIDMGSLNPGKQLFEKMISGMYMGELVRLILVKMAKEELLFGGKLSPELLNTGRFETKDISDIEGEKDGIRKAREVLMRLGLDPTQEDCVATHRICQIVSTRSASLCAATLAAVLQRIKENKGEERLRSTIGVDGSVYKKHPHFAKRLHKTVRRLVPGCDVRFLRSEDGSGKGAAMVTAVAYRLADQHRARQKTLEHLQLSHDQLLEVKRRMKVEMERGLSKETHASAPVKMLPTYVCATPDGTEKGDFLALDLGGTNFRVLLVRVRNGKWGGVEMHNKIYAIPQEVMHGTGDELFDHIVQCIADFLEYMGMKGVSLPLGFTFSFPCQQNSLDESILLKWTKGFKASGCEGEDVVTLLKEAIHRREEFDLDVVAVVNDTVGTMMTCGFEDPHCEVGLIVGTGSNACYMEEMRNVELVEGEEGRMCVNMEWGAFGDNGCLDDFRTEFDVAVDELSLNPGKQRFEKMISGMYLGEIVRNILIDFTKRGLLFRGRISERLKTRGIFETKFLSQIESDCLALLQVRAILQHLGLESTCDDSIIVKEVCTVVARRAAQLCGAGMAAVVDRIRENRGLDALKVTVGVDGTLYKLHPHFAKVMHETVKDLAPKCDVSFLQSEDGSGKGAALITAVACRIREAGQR
Procedure: as §1

HK4 = molecular target: T3, HK4 (Homo sapiens, UniProt P35557); assay: as above; assay type: biochemical; conditions: recombinant HK4
T3 construct: made in house; host or cells: E. coli BL21 (DE3)
T3 sequence (P35557 1-465): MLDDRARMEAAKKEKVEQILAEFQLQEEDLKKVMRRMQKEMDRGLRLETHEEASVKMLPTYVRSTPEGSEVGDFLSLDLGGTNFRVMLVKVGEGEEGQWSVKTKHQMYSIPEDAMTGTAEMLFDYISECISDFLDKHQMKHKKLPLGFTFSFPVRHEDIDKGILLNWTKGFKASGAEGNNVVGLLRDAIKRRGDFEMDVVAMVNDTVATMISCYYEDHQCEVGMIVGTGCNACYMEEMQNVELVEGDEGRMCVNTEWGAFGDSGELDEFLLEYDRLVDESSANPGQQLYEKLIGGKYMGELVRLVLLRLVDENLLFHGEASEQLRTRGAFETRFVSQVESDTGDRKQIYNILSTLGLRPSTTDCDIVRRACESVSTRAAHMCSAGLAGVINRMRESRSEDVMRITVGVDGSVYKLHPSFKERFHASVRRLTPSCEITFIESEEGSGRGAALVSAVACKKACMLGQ
Procedure: as §1

SW480 cells [1] = assay: Glucose uptake assay; assay type: cell-based, human; conditions: 48 h; versus untreated or Met treated control
Procedure: The Glucose Assay Kit (Rsbio, Shanghai, China) was used to analyse the glucose uptake. After 48 h drug treatment, media was collected and diluted within water. The amount of glucose in the media was then detected. Glucose uptake was determined by subtracting the amount of glucose in each sample from the total amount of glucose in the media (without cells). Met was used as a standard control in this assay.

SW480 cells [2] = assay: Measurement of intracellular ATP level; assay type: cell-based, human; conditions: 75, 150 and 300 μM, 48 h
Procedure: After centrifugation, supernatants were assayed by ATP assay kit (KeyGen, Nanjing, China) to determine the generation of ATP. The assay was determined using the plate reader (Synergy HT, BioTek, USA) at 636 nm.

NC(CO)C(=O)NNCc1ccc(O)c(O)c1O (centres unmarked) [Benz, Benserazide]
IC50 (HK1): 25.13 ± 0.24 µM
IC50 (HK2): 5.52 ± 0.17 µM
IC50 (HK4): 40.5 ± 2.94 µM
glucose uptake (SW480 cells [1]): significantly lower
intracellular ATP level (SW480 cells [2]): reduced
